Assay results taken from patent US20130190365A1, “Use of Deferiprone and Methods to Treat and/or Prevent Friedreich Ataxia Resulting from Intracellular Mishandling of Iron” (priority 2006, published 2013).

Legend:
intracellular iron pools = details: macrophages, hepatocytes and cardiomyocyte cell lines; cited from earlier work
[1] = 52-week twice daily oral toxicity study in non-iron-loaded cynomolgus monkeys; assay type: in vivo
Experimental: As part of a larger study on the potential toxicity of iron chelators, we evaluated the toxicity of deferiprone in normal monkeys receiving 150 mg/kg/day (75 mg/kg twice daily) for 1 year.
To determine the toxicity of deferiprone in non-iron-loaded cynomolgus monkeys following twice daily oral (gavage) administration for 52 consecutive weeks, and to evaluate the regression of any toxic effect during a 4-week treatment-free period.
(§1) Groups of 4 male and 4 female monkeys (2 to 3 years old) were dosed by nasogastric intubation at (0.5% w/v aqueous carboxymethylcellulose vehicle) 75 mg/kg deferiprone twice daily (bid), with 6-8 hours between doses, for at least 364 days.
(§2) Clinical signs, body weights and food intake were assessed at frequent intervals. Ophthalmological and cardiovascular examinations were carried out in Weeks 17, 30, 43, 56 and 60. Hematology, coagulation, clinical chemistry and urine parameters were measured at baseline and in Weeks 8, 16, 30, 41, 56 and 60. Blood samples were taken on the first day of dosing, and in Weeks 17 and 56 for assessment of the serum deferiprone time-concentration profile. A full necropsy was performed on each animal, selected organs weighed, and histopathological examination of abnormalities and selected tissues conducted.

[2] = Perdue Pegboard test in Friedreich ataxia patients; assay type: in vivo, human; details: for Perdue pegboard (number of nails inserted with the two hands alone+together): after trial
Source text: (§3) The International Cooperative Ataxia Rating Score (ICARS) was used to assess the symptoms of ataxia before and after 1-5 months (Cano et al. International cooperative ataxia rating scale (ICARS): Appropriate for studies of Friedreich's ataxia? Mov Disord 2005; 20:1585-91). This scale has four subscales: posture and gait disturbance, kinetic functions, speech disorders and oculomotor disorders. Subscale scores are summed to give a total score ranging from 0 to 100. High scores indicated worse ataxia. The Perdue Pegboard test, which assesses speed of performance, delicate movements and manipulative dexterity, was included in the course of the study. This test assesses the ability of the participant to insert as many nails as possible into preset holes, linearly dug in a wooden board in a limited space of time (20 seconds with the two hands, separately and together). The tests were administered by the same investigator. Patients were monitored for neutropenia, agranulocytosis, musculoskeletal pains and zinc deficiency and had weekly blood counts, plasma iron, serum ferritin and transferrin concentration measurements, as well as assessments of renal and liver function.

[3] = serum deferiprone time-concentration profile (HPLC) in the 52-week monkey study; assay type: in vivo, cynomolgus monkeys; details: monkeys, 75 mg/kg twice daily oral
Experimental: as §1, §2
Deferiprone was detectable (HPLC) from 0.5 h after dosing, and for up to 7 h.

[4] = International Cooperative Ataxia Rating Score (ICARS), phase I-II open trial in Friedreich ataxia patients; assay type: in vivo, human; details: for ICARS oculomotor disorder (/6) / ICARS posture and gait disturbance: gait speed / ICARS posture and gait disturbance: spread feet / ICARS speech disorder (/8) / ICARS posture and gait disturbance: standing eyes open / ICARS posture and gait disturbance: walking / ICARS kinetic function (/29) / ICARS posture and gait disturbance 7 items (/34): after trial
Source text: Ten adolescents (four males, six females aged 14 to 23 yrs) with a diagnosis of Friedreich ataxia, confirmed by detection of a trinucleotide-repeat expansion in the first intron of the frataxin gene, were studied. Patients received deferiprone (Ferriprox™, Apotex Inc., Toronto, Canada) orally, in two doses for 1-5 months. Three patients were included, sequentially, for a minimum period of two months at each dose. Patient enrollment was staggered by two-weeks to enable monitoring of response. In the absence of toxicity, and with evidence of efficacy in any of the first 3 patients, a second group of 3 patients would be included at the same dose for a total duration of 6 months. If there was an absence of both efficacy and toxicity, the second group of three patients would be administered a higher dose. If toxicity developed, the current dose would be suspended and the trial resumed with the next group of patients at a lower dose. The patients were on idebenone (10 mg/kg/day, in three doses) for at least two years prior to inclusion and were kept on the drug at the same dose for the duration of the trial. MRI examinations were done at inclusion and at 1, 2, 4 and 6 months. The protocol was promoted by Assistance Publique-Hopitaux de Paris and approved by the local ethical committee and registered at the National Health Authority (AFSSAPS) and at the International Protocol Registration System (www.clinicaltrials.gov). A written informed consent was obtained from patients and parents.
as §3

[5] = patient eight, DFP 20 mg/kg, 3 mth, prior to trial 4
[6] = patient five, DFP 20 mg/kg, 5 mth, prior to trial 3
[7] = patient one, DFP 20 mg/kg, 4 mth, prior to trial 2
[8] = patient one, DFP 20 mg/kg, 4 mth, prior to trial 3
[9] = patient seven, DFP 20 mg/kg, 2 mth, prior to trial 2
[10] = patient seven, DFP 20 mg/kg, 2 mth, prior to trial 3
[11] = patient six, DFP 20 mg/kg, 2 mth, prior to trial 3
[12] = patient three, DFP 30 mg/kg, 1 mth, prior to trial 2
[13] = patient two, DFP 30 mg/kg, 1 mth, prior to trial 0

Compound: Cc1c(O)c(=O)ccn1C [deferiprone, 3-hydroxy-1,2-dimethylpyridin-4-one]
- access to intracellular iron pools and chelation in cells (intracellular iron pools): readily enter most cells and efficiently reach the major intracellular sites of iron accumulation
- deferiprone-related effects on body weight, food intake, ophthalmology, cardiac conduction, blood pressure, heart rate, hematology or urine composition ([1]; 75 mg/kg twice daily, 52 weeks): no deferiprone-related effects
- macroscopic findings at necropsy ([1]; 75 mg/kg twice daily, 52 weeks): No macroscopic findings related to deferiprone were found
- microscopic findings (histopathology) ([1]; 75 mg/kg twice daily, 52 weeks): No microscopic findings in non-iron-loaded monkeys could be attributed to treatment with deferiprone
- overall adverse effect ([1]; oral, 75 mg/kg twice daily for 52 weeks): without significant adverse effect
- speed of performances and dexterity (Perdue Pegboard) ([2]; 30 mg/kg/day group, before and 1-2 months after onset of the trial): an improvement of speed of performances and dexterity
- Perdue pegboard (number of nails inserted with the two hands alone+together) ([2]; patient seven, DFP 20 mg/kg, 2 mth, prior to trial 37): 29
- Perdue pegboard (number of nails inserted with the two hands alone+together) ([2]; patient six, DFP 20 mg/kg, 2 mth, prior to trial 37): 44
- Perdue pegboard (number of nails inserted with the two hands alone+together) ([2]; patient two, DFP 30 mg/kg, 1 mth, prior to trial 52): 39
- peak concentration relative to thalassemia patients on 25 mg/kg three times daily [3]: about three times
- change of ICARS scores ([4]; 20 mg/kg/day, short period of the trial): mild changes of the ICARS scores
- ICARS oculomotor disorder (/6) ([4]; patient eight, DFP 20 mg/kg, 3 mth, prior to trial 3): 2
- ICARS posture and gait disturbance: gait speed [4, 5]: 4
- ICARS posture and gait disturbance: spread feet [4, 5]: 4
- ICARS speech disorder (/8) [4, 5]: 4
- ICARS posture and gait disturbance: standing eyes open ([4]; patient eight, DFP 20 mg/kg, 3 mth, prior to trial 6): 6
- ICARS posture and gait disturbance: walking ([4]; patient eight, DFP 20 mg/kg, 3 mth, prior to trial 7): 7
- ICARS kinetic function (/29) ([4]; patient eight, DFP 20 mg/kg, 3 mth, prior to trial 21): 21
- ICARS posture and gait disturbance 7 items (/34) ([4]; patient eight, DFP 20 mg/kg, 3 mth, prior to trial 33): 32
- ICARS speech disorder (/8) ([4]; patient five, DFP 20 mg/kg, 5 mth, prior to trial 1): 0
- ICARS oculomotor disorder (/6) ([4]; patient five, DFP 20 mg/kg, 5 mth, prior to trial 2): 2
- ICARS posture and gait disturbance: gait speed [4, 6]: 3
- ICARS posture and gait disturbance: spread feet [4, 6]: 2
- ICARS posture and gait disturbance: standing eyes open ([4]; patient five, DFP 20 mg/kg, 5 mth, prior to trial 4): 4
- ICARS posture and gait disturbance: walking ([4]; patient five, DFP 20 mg/kg, 5 mth, prior to trial 7): 7
- ICARS kinetic function (/29) ([4]; patient five, DFP 20 mg/kg, 5 mth, prior to trial 8): 7
- ICARS posture and gait disturbance 7 items (/34) ([4]; patient five, DFP 20 mg/kg, 5 mth, prior to trial 28): 27
- ICARS posture and gait disturbance: gait speed ([4]; patient one, DFP 20 mg/kg, 4 mth, prior to trial 1): 1
- ICARS oculomotor disorder (/6) [4, 7]: 2
- ICARS posture and gait disturbance: standing eyes open [4, 7]: 1
- ICARS speech disorder (/8) [4, 7]: 2
- ICARS posture and gait disturbance: spread feet [4, 8]: 3
- ICARS posture and gait disturbance: walking [4, 8]: 2
- ICARS kinetic function (/29) ([4]; patient one, DFP 20 mg/kg, 4 mth, prior to trial 7): 7
- ICARS posture and gait disturbance 7 items (/34) ([4]; patient one, DFP 20 mg/kg, 4 mth, prior to trial 12): 9
- ICARS oculomotor disorder (/6) ([4]; patient seven, DFP 20 mg/kg, 2 mth, prior to trial 0): 0
- ICARS posture and gait disturbance: gait speed ([4]; patient seven, DFP 20 mg/kg, 2 mth, prior to trial 1): 1
- ICARS posture and gait disturbance: spread feet [4, 9]: 2
- ICARS speech disorder (/8) [4, 9]: 2
- ICARS posture and gait disturbance: standing eyes open [4, 10]: 1
- ICARS posture and gait disturbance: walking [4, 10]: 3
- ICARS kinetic function (/29) ([4]; patient seven, DFP 20 mg/kg, 2 mth, prior to trial 13): 12
- ICARS posture and gait disturbance 7 items (/34) ([4]; patient seven, DFP 20 mg/kg, 2 mth, prior to trial 16): 13
- ICARS oculomotor disorder (/6) ([4]; patient six, DFP 20 mg/kg, 2 mth, prior to trial 0): 0
- ICARS posture and gait disturbance: gait speed ([4]; patient six, DFP 20 mg/kg, 2 mth, prior to trial 2): 2
- ICARS posture and gait disturbance: spread feet [4, 11]: 3
- ICARS speech disorder (/8) [4, 11]: 2
- ICARS posture and gait disturbance: standing eyes open ([4]; patient six, DFP 20 mg/kg, 2 mth, prior to trial 5): 4
- ICARS posture and gait disturbance: walking ([4]; patient six, DFP 20 mg/kg, 2 mth, prior to trial 7): 7
- ICARS kinetic function (/29) ([4]; patient six, DFP 20 mg/kg, 2 mth, prior to trial 11): 11
- ICARS posture and gait disturbance 7 items (/34) ([4]; patient six, DFP 20 mg/kg, 2 mth, prior to trial 17): 16
- ICARS posture and gait disturbance: spread feet ([4]; patient three, DFP 30 mg/kg, 1 mth, prior to trial 1): 0
- ICARS oculomotor disorder (/6) [4, 12]: 2
- ICARS posture and gait disturbance: gait speed [4, 12]: 2
- ICARS posture and gait disturbance: standing eyes open [4, 12]: 1
- ICARS posture and gait disturbance: walking [4, 12]: 2
- ICARS speech disorder (/8) [4, 12]: 2
- ICARS kinetic function (/29) ([4]; patient three, DFP 30 mg/kg, 1 mth, prior to trial 8): 8
- ICARS posture and gait disturbance 7 items (/34) ([4]; patient three, DFP 30 mg/kg, 1 mth, prior to trial 11): 8
- ICARS oculomotor disorder (/6) [4, 13]: 0
- ICARS speech disorder (/8) [4, 13]: 0
- ICARS posture and gait disturbance: gait speed ([4]; patient two, DFP 30 mg/kg, 1 mth, prior to trial 1): 1
- ICARS posture and gait disturbance: spread feet ([4]; patient two, DFP 30 mg/kg, 1 mth, prior to trial 2): 2
- ICARS posture and gait disturbance: standing eyes open ([4]; patient two, DFP 30 mg/kg, 1 mth, prior to trial 3): 2
- ICARS posture and gait disturbance: walking ([4]; patient two, DFP 30 mg/kg, 1 mth, prior to trial 7): 7
- ICARS kinetic function (/29) ([4]; patient two, DFP 30 mg/kg, 1 mth, prior to trial 9): 9
- ICARS posture and gait disturbance 7 items (/34) ([4]; patient two, DFP 30 mg/kg, 1 mth, prior to trial 20): 17

Compound: CC(=O)N(O)CCCCCNC(=O)CCC(=O)N(O)CCCCCNC(=O)CCC(=O)N(O)CCCCCN [desferrioxamine]
- access to intracellular iron pools and chelation in cells (intracellular iron pools): slow
